Measured values taken from US20230381321A1, “CAMPTOTHECIN CONJUGATES” (priority 2022, published 2023).
Where two headings read alike, the source gives them in different places.

Experiments:
Format in all cases: cell-based
[1] = system: renal carcinoma cells (786-O); assay: In vitro potency (CellTiter-Glo, 96 h) on 786-O; conditions: Homo sapiens, 786-0, 96 h, read-out: 786-O IC50
Summary of the method: (§1)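 […] are titrated onto log-phase cells pre-seeded for 24 h in RPMI 1640 supplemented with 20% FBS. Growth inhibition comes from luminescence.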

melanoma cells (A2058) = assay: In vitro potency (CellTiter-Glo, 96 h) on A2058; conditions: Homo sapiens, A2058, 96 h, read-out: A2058 IC50
Description: (§2) In vitro potency was assessed on multiple cancer cell lines. All cell lines were authenticated by STR profiling at IDEXX Bioresearch and cultured for no more than 2 months after resuscitation. Cells cultured in log-phase growth were seeded for 24 hours in 96-well plates containing […] RPMI 1640 supplemented with 20% FBS. Serial dilutions of antibody-drug conjugates in cell culture media were prepared at 4x working concentrations, and 50 μL of each dilution was added to the 96-well plates. Following addition of test articles, cells were incubated with test articles for 4 days at […]. After 96 hours, growth inhibition was assessed by CellTiterGlo® (Promega, Madison, WI) and luminescence was measured on a plate reader.
(§3) Cell viability was determined by CellTiter-Glo staining after 96h exposure to ADC. ND=Not Determined. In the following tables, “Ex_” refers to a drug linker number. For example, “Ag4-Ex_4a” refers to a conjugate of an Ag4 antibody with drug linker 4a.

[2] = system: pancreatic cancer cells (BxPC3); assay: In vitro potency (CellTiter-Glo, 96 h) on BxPC3; conditions: Homo sapiens, BXPC-3, 96 h, read-out: BxPC3 IC50
Summary of the method: as §1

[3] = system: non-small-cell lung cancer cells (Calu1); assay: In vitro potency (CellTiter-Glo, 96 h) on Calu1; conditions: Homo sapiens, Calu-1, 96 h, read-out: Calu1 IC50
Description: as §2, §3

[4] = system: anaplastic large cell lymphoma cells (DEL); assay: In vitro potency (CellTiter-Glo, 96 h) on DEL; conditions: 96 h, read-out: DEL IC50
Summary of the method: as §1

[5] = system: anaplastic large cell lymphoma cells (DELBVR); assay: In vitro potency (CellTiter-Glo, 96 h) on DELBVR; conditions: 96 h, read-out: DELBVR IC50
Summary of the method: as §1

[6] = system: anaplastic large cell lymphoma cells (Karpas299); assay: In vitro potency (CellTiter-Glo, 96 h) on Karpas299; conditions: Homo sapiens, KARPAS-299, 96 h, read-out: Karpas299 IC50
Summary of the method: as §1

[7] = system: Hodgkin's lymphoma cells (L540cy); assay: In vitro potency (CellTiter-Glo, 96 h) on L540cy; conditions: L540cy, 96 h, read-out: L540cy IC50
Summary of the method: as §1

[8] = In vitro potency (CellTiter-Glo, 96 h) on Ls174T; conditions: Homo sapiens, LS174T, read-out: Ls174T IC50
Summary of the method: as §1

[9] = system: breast cancer cells (MDA-MB-231); assay: In vitro potency (CellTiter-Glo, 96 h) on MDA-MB-231; conditions: read-out: MDAMB 231 IC50
Summary of the method: as §1

[10] = system: acute myeloid leukemia cells (MOLM-13); assay: In vitro potency (CellTiter-Glo, 96 h) on MOLM-13; conditions: read-out: MOLM-13 IC50
Summary of the method: as §1

[11] = system: B-lymphocyte cancer cells (SU-DHL4); assay: In vitro potency (CellTiter-Glo, 96 h) on SU-DHL4; conditions: Homo sapiens, SU-DHL-4, 96 h, read-out: SU-DHL-4 IC50
Summary of the method: as §1

[12] = CPT free drugs, CellTiter-Glo after 96 h exposure
[13] = Homo sapiens, MDA-MB-231, 96 h, CPT free drugs, CellTiter-Glo after 96 h exposure
[14] = Homo sapiens, MOLM-13, 96 h, CPT free drugs, CellTiter-Glo after 96 h exposure

Structure (SMILES) | IC50 [1, 12] | IC50 (melanoma cells (A2058); [12]) | IC50 [2, 12] | IC50 [3, 12] | IC50 [4, 12] | IC50 [5, 12] | IC50 [6, 12] | IC50 [7, 12] | IC50 [8, 12] | IC50 [9, 13] | IC50 [10, 14] | IC50 [11, 12] | further results
C=Cc1ccc2nc3c(c(CN)c2c1)Cn1c-3cc2c(c1=O)COC(=O)[C@]2(O)CC [Compound 33, (19S)-10-(aminomethyl)-19-ethyl-19-hydroxy-7-vinyl-17-oxa-3,13-diazapentacyclo[11.8.0.02,11.04,9.015,20]henicosa-1(21),2,4,6,8,10,15(20)-heptaene-14,18-dione] | 10 nM | 6 nM | 11 nM | 36 nM | 2 nM | 2 nM | 8 nM | 4 nM | 14 nM | 18 nM | 85 nM | 4 nM | 
CC[C@@]1(O)C(=O)OCc2c1cc1n(c2=O)Cc2c-1nc1ccc(SC)c(F)c1c2CN [Compound 2au] | 4 nM | 3 nM | 6 nM | 7 nM | 1 nM | 1 nM | 5 nM | 1 nM | 2 nM | 1 nM | 40 nM | 2 nM | 
CC[C@@]1(O)C(=O)OCc2c1cc1n(c2=O)Cc2c-1nc1cc(F)c(C)c(-c3cccc(O)c3)c1c2CN [Compound 6i] | 5 nM | 2 nM | 10 nM | 26 nM | 1 nM | 1 nM | 4 nM | 3 nM | 10 nM | 11 nM | 2 nM | 2 nM | 
CC[C@@]1(O)C(=O)OCc2c1cc1n(c2=O)Cc2c-1nc1cc3c(c(F)c1c2CN)CCC3 [Compound 5b] | 69 nM | 17 nM | 128 nM | 54 nM | 17 nM | 15 nM | 46 nM | 10 nM | 45 nM | 36 nM | > 1000 nM | 27 nM | 
CC[C@@]1(O)C(=O)OCc2c1cc1n(c2=O)Cc2c-1nc1ccc3c(c1c2CN)COC3 [Compound 2aq] | 11 nM | 18 nM | 27 nM | 1 nM | 2 nM | 3 nM | 7 nM | 4 nM | 12 nM | 12 nM | 39 nM | 5 nM | 
CC[C@@]1(O)C(=O)OCc2c1cc1n(c2=O)Cc2c-1nc1ccc3c(c1c2CN)SCC3 [Compound 2av] | 22 nM | 4 nM | 34 nM | 25 nM | 5 nM | 4 nM | 26 nM | 5 nM | 11 nM | 9 nM | 236 nM | 8 nM | 
CC[C@@]1(O)C(=O)OCc2c1cc1n(c2=O)Cc2c-1nc1cccc(OC)c1c2CN [Compound 5a] | 56 nM | 16 nM | 154 nM | 389 nM | 7 nM | 10 nM | 28 nM | 20 nM | > 1000 nM | 350 nM | 73 nM | 12 nM | 
CC[C@@]1(O)C(=O)OCc2c1cc1n(c2=O)Cc2c-1nc1cc(F)c(C)c(C3=CCN(C)CC3)c1c2CN [Compound 6l] | 38 nM | 16 nM | 51 nM | 73 nM | 6 nM | 15 nM | 25 nM | 20 nM | 29 nM | 177 nM | 16 nM | 18 nM | 
CC[C@@]1(O)C(=O)OCc2c1cc1n(c2=O)Cc2c-1nc1cc(F)c(C)c(-c3ccsc3)c1c2CN [Compound 6g] | 6 nM | 4 nM | 7 nM | 25 nM | 1 nM | 1 nM | 4 nM | 4 nM | 14 nM | 12 nM | 6 nM | 2 nM | 
C=C(C)c1ccc2nc3c(c(CN)c2c1)Cn1c-3cc2c(c1=O)COC(=O)[C@]2(O)CC [Compound 33a] | 34 nM | 18 nM | 50 nM | 120 nM | 7 nM | 12 nM | 28 nM | 21 nM | 18 nM | 36 nM | 258 nM | 14 nM | 
CC[C@@]1(O)C(=O)OCc2c1cc1n(c2=O)Cc2c-1nc1cc3c(cc1c2CN)C(C)CO3 (stereo partly drawn) [Compound 11, (5S)-14-(aminomethyl)-5-ethyl-5-hydroxy-18-methyl-7,20-dioxa-11,24 diazahexacyclo[11.11.0.02,11.04,9.015,23.017,21]tetracosa-1(24),2,4(9),13,15(23),16,21-heptaene-6,10-dione] | 8 nM | 3 nM | 12 nM | 69 nM | 1 nM | 2 nM | 14 nM | 4 nM | > 1000 nM |  |  | 4 nM | IC50 [9, 12]: 41 nM; IC50 [10, 12]: 108 nM
CC[C@@]1(O)C(=O)OCc2c1cc1n(c2=O)Cc2c-1nc1cc(F)c(C)c(C3=CCN(C(C)=O)CC3)c1c2CN [Compound 6k] | 80 nM | 17 nM | 95 nM | 170 nM | 7 nM | 11 nM | 40 nM | 16 nM | 46 nM | 368 nM | 13 nM | 21 nM | 
CC[C@@]1(O)C(=O)OCc2c1cc1n(c2=O)Cc2c-1nc1cc3c(cc1c2CN)CCO3 [Compound 2n, (5S)-14-(aminomethyl)-5-ethyl-5-hydroxy-7,20-dioxa-11,24-diazahexacyclo[11.11.0.02,11.04,9.015,23.017,21]tetracosa-1(24),2,4(9),13,15(23),16,21-heptaene-6,10-dione;2,2,2-trifluoroacetic acid] |  |  |  |  |  |  |  |  |  |  |  |  | IC50 [1]: 5 nM; IC50 (melanoma cells (A2058)): 3 nM; IC50 [2]: 3 nM; IC50 [3]: 18 nM; IC50 [4]: 1 nM; IC50 [5]: 1 nM; IC50 [6]: 5 nM; IC50 [7]: 2 nM; IC50 ([8]; 96 h): 4 nM; IC50 ([9]; Homo sapiens, MDA-MB-231, 96 h): 8 nM; IC50 ([10]; Homo sapiens, MOLM-13, 96 h): 29 nM; IC50 [11]: 1 nM
CC[C@@]1(O)C(=O)OCc2c1cc1n(c2=O)Cc2c-1nc1cc(F)c3c(c1c2CN)CCC3 [Compound 2as] | 3 nM | 3 nM | 5 nM | 4 nM | 1 nM | 1 nM | 3 nM | 1 nM | 2 nM | 1 nM | 51 nM | 2 nM | 
